One assay deals with RARs. The assay is described as follows: Co-transfection assay, RARs overall. In kind it is cell-based, human. How it is done:
(§1) Utilizing the "cis-trans" or "co-transfection" assay described by Evans et al., Science, 240:889-95 (May 13, 1988), the disclosure of which is herein incorporated by reference, the retinoid compounds of the present invention were tested and found to have strong, specific activity as either selective RAR agonists, selective RXR agonists, or as pan-agonist activators of both RAR and RXR receptors. This assay is described in further detail in U.S. Pat. Nos. 4,981,784 and 5,071,773, the disclosures of which are incorporated herein by reference.
(§2) In the co-transfection assay, a cloned cDNA for an IR (e.g., human RARα, RARβ, RXRγ) under the control of a constitutive promoter (e.g., the SV 40 promoter) is introduced by transfection (a procedure to induce cells to take up foreign genes) into a background cell substantially devoid of endogenous IRs. This introduced gene directs the recipient cells to make the IR protein of interest. A second gene is also introduced (co-transfected) into the same cells in conjunction with the IR gene. This second gene, comprising the cDNA for a reporter protein, such as firefly luciferase (LUC), controlled by an appropriate hormone responsive promoter containing a hormone response element (HRE). This reporter plasmid functions as a reporter for the transcription-modulating activity of the target IR. Thus, the reporter acts as a surrogate for the products (mRNA then protein) normally expressed by a gene under control of the target receptor and its native hormone.
The co-transfection assay can detect small molecule agonists or antagonists of target IRs. Exposing the transfected cells to an agonist ligand compound increases reporter activity in the transfected cells. This activity can be conveniently measured, e.g., by increasing luciferase production, which reflects compound-dependent, IR-mediated increases in reporter transcription. […] . Increasing concentrations of a suspected antagonist will decrease the reporter signal (e.g., luciferase production). The co-transfection assay is therefore useful to detect both agonists and antagonists of specific IRs. Furthermore, it determines not only whether a compound interacts with a particular IR, but whether this interaction mimics (agonizes) or blocks (antagonizes) the effects of the native regulatory molecules on target gene expression, as well as the specificity and strength of this interaction. […]

A further assay has as its system RAR and RXR receptors. The assay is described as follows: Co-transfection assay, RAR and RXR receptors overall. In kind it is cell-based. The settings on record: for receptor subfamily selectivity: RAR versus RXR; for potency profile versus 9-cis retinoic acid: pan-agonist compounds. On the procedure: as §1, §2
The co-transfection assay can detect small molecule agonists or antagonists of target IRs. Exposing the transfected cells to an agonist ligand compound increases reporter activity in the transfected cells. This activity can be conveniently measured, e.g., by increasing luciferase production, which reflects compound-dependent, IR-mediated increases in reporter transcription. […] . Increasing concentrations of a suspected antagonist will decrease the reporter signal (e.g., luciferase production). The co-transfection assay is therefore useful to detect both agonists and antagonists of specific IRs. Furthermore, it determines not only whether a compound interacts with a particular IR, but whether this interaction mimics (agonizes) or blocks (antagonizes) the effects of the native regulatory molecules on target gene expression, as well as the specificity and strength of this interaction.
To determine RAR and/or RXR agonist activity of the compounds of the present invention, the CV-1 cells were transiently transfected by calcium phosphate coprecipitation according to the procedure of Berger et al., 41 J.Steroid Biochem. Mol. Biol., 733 (1992) with the following receptor expressing plasmids: pRShRARα: Giguere et al., 330 Nature, 624 (1987); pRShRARβ and pRShRARγ, Ishikawa et al., 4 Mol. Endocrin., 837 (1990); pRShRXRα, Mangelsdorf et al., 345 Nature, 224 (1990); and pRSmRXRβ and pRSmRXRγ, Mangelsdorf et al., 6 Genes & Devel., 329 (1992), the disclosures of which are herein incorporated by reference. Each of these receptor expressing plasmids was co-transfected at a concentration of 5 ng/well, along with a basal reporter plasmid at 100 ng/well, the internal control plasmid pRS-β-Gal at 50 ng/well and filler DNA, pGEM at 45 ng/well.

On to `CC(/C=C/C=C1\CCOc2cc3c(cc21)C(C)(C)CCC3(C)C)=C\C(=O)O` [Compound 119b, (2E,4E)-3-Methyl-6-[(E)-2,3,6,7,8,9-hexahydro-6,6,9,9-tetramethyl-benzo[g]chromen-4-ylidene]hexa-2,4-dienoic acid], for which the “RAR activity” value with RARs is “extremely potent RAR active”. Further, in the assay with RAR and RXR receptors, the receptor subfamily selectivity result is recorded as “RAR selective”.

As for `CC(/C=C/C=C1\CCCc2cc3c(cc21)C(C)(C)CCC3(C)C)=C\C(=O)O` [Compound 109b, (2E,4E)-3-Methyl-6-[(E)-3,4,5,6,7,8-hexahydro-5,5,8,8-tetramethyl-2H-anthracen-1-ylidene]hexa-2,4-dienoic acid], the “RAR activity” value with RARs is on record as “extremely potent RAR active”. Further, the receptor subfamily selectivity result in the assay with RAR and RXR receptors is recorded as “RAR selective”. Turning to `CC(/C=C/C=C1/CCCc2cc3c(cc21)C(C)(C)CCC3(C)C)=C\C(=O)O` [Compound 101b, (2E,4E)-3-Methyl-6-[(Z)-3,4,5,6,7,8-hexahydro-5,5,8,8-tetramethyl-2H-anthracen-1-ylidene]hexa-2,4-dienoic acid], the “RAR activity” value in the assay on RARs was “extremely potent RAR active”. The “potency profile versus 9-cis retinoic acid” value in the assay on RAR and RXR receptors is given as “superior potency profiles”. For the molecule `CC(/C=C/CC1CCCc2cc3c(cc21)C(C)(C)CCC3(C)C)=C\C(=O)O` (racemic) [Compound 124b, (2E,4E)-3-Methyl-6-(1,2,3,4,5,6,7,8-octahydro-5,5,8,8-tetramethylanthracen-1-yl)hexa-2,4-dienoic acid], the “potency profile versus 9-cis retinoic acid” value with RAR and RXR receptors was “superior potency profiles”. `CC(/C=C/C=C1/CCOc2cc3c(cc21)C(C)(C)CCC3(C)C)=C\C(=O)O` [Compound 144b]: the “RAR activity” value with RARs is “extremely potent RAR active”. Besides, the “potency profile versus 9-cis retinoic acid” value with RAR and RXR receptors is listed as “superior potency profiles”.

The record behind these values is patent publication US5770378A, “Tricyclic retinoids, methods for their production and use” (Ligand Pharmaceuticals, Inc., priority 1995, dated 1998).
